From patent US20230391817A1, “5ALPHA-HYDROXY-6BETA-[2-(1-H-IMIDAZOL-4-YL)-ETHYLAMINO]-CHOLESTAN-3BETA-OL ANALOGUES AND PHARMACEUTICAL COMPOSITIONS COMPRISING SAME FOR USE IN THE TREATMENT OF CANCER” (priority 2020, published 2023) come the findings set out here.

The structures appear in SMILES notation.

The assay concerns the target T1, Cholesterol Epoxide Hydrolase (ChEH) (Homo sapiens, UniProt Q15125+Q9UBM7).
T1 construct: endogenous in cells; host or cells: MCF-7
Briefly: Cholesterol Epoxide Hydrolase (ChEH) activity in MCF-7 cells, [14C]5,6α-EC metabolism by TLC. The following applies: 1 μM, 24 h, [14C]5,6α-EC 0.6 μM. Type of assay: cell-based. From the text:
The compounds 5,6α-epoxycholesterol (5,6α-EC) and 5,6p-epoxycholesterol (5,6p-EC) are oxysterols involved in the anticancer pharmacology of tamoxifen, a widely used antitumor drug. Both are metabolized to cholestane-3β,5α,6β-triol (CT) by the enzyme cholesterol-5,6-epoxide hydrolase (ChEH), and CT is metabolized by the enzyme HSD11B2 (11β-hydroxysteroid dehydrogenase 2) to 6-oxocholestane-3β,5α-diol (OCDO), a tumor-promoting oncosterone.
MCF-7 cells are in a cell culture medium identical to that of Example 5 and are seeded in 6-well plates at 150 000 cells per well with three wells per treatment condition. […] Tamoxifen is used as a positive control for 3α-fluoro-5α-hydroxy-6β-[2-(1H-imidazol-4-yl)ethylamino]cholestane and 5α-hydroxy-6β-[2-(1H-imidazol-4-yl)ethylamino]cholestan-3β-ol (1 μM for all molecules).
After 24 hours of treatment, the media are collected and lipid extracts are prepared from the cell pellets by extraction with 100 μL of chloroform, 400 μL of methanol, and 300 μL of water.
The lipid extracts are analyzed by thin layer chromatography (TLC) using ethyl acetate (EtOAc) as eluent. The analysis is performed with a plate reader and then by autoradiography.

T1 sequence (Q15125 whole entry): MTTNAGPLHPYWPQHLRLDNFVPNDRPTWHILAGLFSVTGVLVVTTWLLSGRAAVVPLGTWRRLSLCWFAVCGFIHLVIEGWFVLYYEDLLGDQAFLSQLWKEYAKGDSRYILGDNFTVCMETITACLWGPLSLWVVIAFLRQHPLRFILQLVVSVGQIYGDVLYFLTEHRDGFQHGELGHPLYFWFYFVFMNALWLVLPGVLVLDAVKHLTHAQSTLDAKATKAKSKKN
T1 sequence (Q9UBM7 whole entry): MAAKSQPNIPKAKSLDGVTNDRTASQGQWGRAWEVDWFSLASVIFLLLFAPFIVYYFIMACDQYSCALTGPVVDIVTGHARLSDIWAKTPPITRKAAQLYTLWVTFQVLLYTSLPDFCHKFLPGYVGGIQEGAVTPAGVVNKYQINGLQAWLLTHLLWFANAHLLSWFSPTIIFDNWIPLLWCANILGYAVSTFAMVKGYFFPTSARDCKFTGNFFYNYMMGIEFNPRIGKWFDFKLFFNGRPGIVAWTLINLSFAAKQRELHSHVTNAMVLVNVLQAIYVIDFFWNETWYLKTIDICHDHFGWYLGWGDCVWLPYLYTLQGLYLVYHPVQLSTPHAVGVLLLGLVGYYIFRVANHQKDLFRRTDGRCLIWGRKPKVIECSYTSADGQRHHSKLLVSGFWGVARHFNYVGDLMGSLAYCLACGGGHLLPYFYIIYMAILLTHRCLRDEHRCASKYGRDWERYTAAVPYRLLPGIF

On to `CC/C(=C(\c1ccccc1)c1ccc(OCCN(C)C)cc1)c1ccccc1` [tamoxifen, reference compound], for which the “inhibition of ChEH activity” value was “total inhibition”.
